According to patent publication US20080039532A1, “Compounds For Specific Viral Target” (priority 2004, published 2008):
Values joined by “and” are separate entries in the source; they are usually repeats but may differ in a detail not shown here. Identical values can stand only once. Ends that are not written are not given here. linker‑R1‑R2‑M = not defined here

Assays:
HIV-1 Strain IIIB = assay: Determination of IC-50 of antiviral drugs by reverse transcriptase assay in PHA-stimulated CBMC; format: cell-based; conditions: for RT Results (cpm) (Day 7): +drugs 7 days, replicate columns; for anti-HIV activity (inhibition of reverse-transcriptase activity of HIV-1) as compared to native C34: standard in vitro assay
Procedure: Determination of IC-50 for Assessing the Activity of Antiviral Drugs Using HIV-1 Strain IIIB
The assay is performed in a 96-well plate with 500,000 PHA-stimulated CBMC (cord blood mononuclear cells) per well, 2 wells per drug concentration, with a minimum of 6 concentrations per drug. Media used is RPMI 1640 with 10% FBS, penicilin (100 U/ml), streptomycine (100 μg/ml), glutamine (2 mM), hydrocortisone (5 μg/ml), and IL-2 (20 U/ml).
Control drug stocks are prepared by adding 2 ml of buffer to the native compounds or the reactive compounds. The stocks are stored at −20 degrees Celsius. The drug concentrations were determined by ConjuChem Inc. [drawing 76] Addition of the Compound Prior to Cell Infection
Target cells are incubated with different compounds concentrations for 30-60 minutes at 37 degrees Celsius prior to addition of virus (multiplicity of infection (MOI)=0.1-1.0). Following plating, target cells are in the continuous presence of the different concentrations of inhibitor for a total of 7 days.
Following 3-4 days of incubation, each compound is replenished.
Reverse transcriptase assay is used to measure the IC50.
CC50 (cytotoxic concentration) is also evaluated for all compounds.
3TC is used as a control inhibitor

[1] = biological target: N36 peptide (CJC-1592) derived from the N-heptad repeat of HIV-1's gp41 glycoprotein (Human immunodeficiency virus type 1 group M subtype B, UniProt P04578); conditions: 1 hour incubation at room temperature; 17.5% acrylamide; compared to native C34
Procedure: Following the 1 hour incubation at room temperature, at least 20 micrograms of total N36/C34 peptide mixture were loaded into each well and separated using Native-polyacrylamide gel electrophoresis (17.5% acrylamide) and stained using Coomassie Brilliant Blue. Unlike SDS-PAGE, Native-PAGE allows one to visualize the formation of six-helix bundles at approximately 28 kDa composed of three central N36 peptides surrounded by three C34 peptides. The formation of this structure and its analogs among other viruses is critical to the subsequent membrane fusion events.

Substance	RT Results (cpm) (Day 7) (HIV-1 Strain IIIB; Conc 125 nm)	RT Results (cpm) (Day 7) (HIV-1 Strain IIIB; Conc 600 nm)	RT Results (cpm) (Day 7) (HIV-1 Strain IIIB; Conc 3000 nm)	efficiency of the binding element in binding to its viral target, compared to native C34 (HIV-1 Strain IIIB; inferred from anti-HIV activity, N-heptad repeat of HIV-1's gp41)	anti-HIV activity (inhibition of reverse-transcriptase activity of HIV-1) as compared to native C34 (HIV-1 Strain IIIB)	binding of C34 derivative to N36 peptide on Native-PAGE [1]
SEQ ID NO: 32: C34 with linker-R1-R2-M inserted at position Asp5 (Ac-WMEWK(linker‑R1‑R2‑M)REINNYTSLIHSLIEESQNQQERNEQELL; not fully specified; reading uncertain)	6322 cpm and 6929 cpm and 5909 cpm	6477 cpm and 11889 cpm and 6030 cpm	7967 cpm and 5896 cpm and 6208 cpm	as efficient in binding to its viral target as native C34	as effectively as the native C34	does not impede C34 from binding to its target N36 peptide
SEQ ID NO: 93: native (unreactive, non-covalent) version of C34 (Ac-WMEWDREINNYTSLIHSLIEESQNQQERNEQELL) [reference compound]	5854 cpm and 5040 cpm and 5219 cpm	4924 cpm and 5850 cpm and 5093 cpm	5811 cpm and 6955 cpm and 5973 cpm		essentially no loss in anti-HIV activity	
